The values below come from publication PMC9505031, “Implementation of QbD Approach to the Development of Chromatographic Methods for the Determination of Complete Impurity Profile of Substance on the Preclinical and Clinical Step of Drug Discovery Studies” (International Journal of Molecular Sciences, 2022).

A short description of data set [1]: Chromatographic hydrophobicity index CHI logD determination (UltraCore SuperC18 column). The format is physicochemical. The source says:
Due to this observation and to better characterise elution conditions for method development, it was decided to determine the chromatographic hydrophobicity index CHI logD of CPL409116 and its impurities by the methodology described by Valko et al.. Chromatographic hydrophobicity index CHI logD has been originally used for high-throughput physicochemical property profiling for rational drug design, where determined values strongly correlate to lipophilicity (logP and/or logD) of molecules.
On a basis of determining lipophilicity described by CHI logD at pH 2.6, 7.4 and 10.5 on ACE Ultracore SuperC18 column more valuable data were obtained in a contest of chromatography interactions molecules with stationary phase extended with their acid-base properties (Table 1). Particularly, strong pH dependence on retention factors has been observed for JAK ImpC and also for JAK07, JAK08, and JAK09. Greater differences and a wider range of CHI logD values, calculated on a base of peaks retention times of compounds, in the lower pH range than in the pH 7.4–10.5 range have been observed. The use of mobile phases with a lower pH would allow obtaining higher chromatographic resolutions and higher selectivity of the analytical method.
For the CHI logD determination, separate solutions of all the tested sample were prepared at a concentration of 1 mM in DMSO. Reference mix solutions have a concentration of 1 mM in DMSO.
The CHI logD for JAK01 and its impurities was determined on an UltraCore 2.5 SuperC18 (2.1 × 50 mm, 2.5 µm, ACE) column with eluent A consisting of formic acid (10 mM, pH 2.6), and ammonium acetate (50 mM) buffers with different concentrations of additives were used to prepare buffer solutions of 7.4, and 10.5, and eluent B consisted ACN [58].

A short description of data set [2]: Solubility in aqueous solutions. The format is physicochemical.

Read-outs that look alike come from different tables or passages of the source.

As for `COc1cccc(-c2cc3ncc(C(N)=O)c(N[C@@H]4CCN(c5ccc(C#N)nn5)CC4(C)C)n3n2)n1` [CPL409116], the chromatographic logD amounted to 3.51 in data set [1] (pH 2.6, 10 mM formic acid/ACN, read-out: CHILogD pH 2.6); 3.09 in data set [1] (pH 7.4, 50 mM ammonium acetate/ACN, read-out: CHILogD pH 7.4); 3.05 in data set [1] (pH 10.5, 50 mM ammonium acetate/ACN, read-out: CHILogD pH 10.5). Besides, in data set [2] (aqueous solutions), the “Solubility in aqueous solutions” value is given as “practically insoluble”. Further, the solubility (as a rule, how much of the substance goes into solution per volume) in data set [2] (pH 7.4, aqueous buffer, phosphate buffer with a pH of 7.4) is < 0.1 µg/mL.
